#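 96-well plates; 48 h exposure; 5 concentrations. Endpoints by linear interpolation between flanking doses. Not reached: highest tested concentration assigned. At the GI50, growth is halved. TGI is the concentration that stops growth completely.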
# System: RXF-631 renal
# Experiment: inhibition of tumour cell growth, NCI panel, 48 h
row,Compound,TGI [µM]
1,O=C(Nc1nc(=S)[nH][nH]1)C(=O)C(C(=O)c1ccc2ccccc2c1)C1OC(=O)c2ccccc21 (stereo not drawn),77.6
2,CCOC(=O)C1=C(C)N(NC(=O)Nc2ccccc2)C2(N)N(NC(=O)Nc3ccccc3)C(C)=C(C(=O)OCC)C12C(=O)OCC (stereo not drawn),> 100
3,O=C(O)CSc1n[nH]c(-c2ccccc2O)n1,> 100
4,O=C1c2ccccc2C(=O)c2c(/C=C\N3CCCCC3)ccnc21,> 45.8
5,O=c1[nH]c(-c2ccccc2)nc2cc(Cl)ccc12,> 100
6,C/C(CN1C(=O)c2ccccc2C1=O)=N\NS(=O)(=O)c1ccc(Cl)cc1,> 100
7,CN(C)CC1CCC/C1=N/OC(=O)c1ccccc1 (stereo not drawn),> 100
8,CCC(C)SC1SCC2C(=O)N(C)C3(CC3C)C(=O)OCC(NC(=O)c3nc4ccccc4cc3O)C(=O)NC(C)C(=O)N(C)C1C(=O)N(C)C1(CC1C)C(=O)OCC(NC(=O)c1nc3ccccc3cc1O)C(=O)NC(C)C(=O)N2C (stereo not drawn),1.22

# System: DMS 114 small cell lung
# Experiment: inhibition of tumour cell growth, NCI panel, 48 h
Compound,TGI [µM],GI50 [µM]
C[C@@]1(O)CC[C@]2(C)C3CCCC3[C@H]12 (stereo partly drawn),> 100,–
O=C(Nc1nc(=S)[nH][nH]1)C(=O)C(C(=O)c1ccc2ccccc2c1)C1OC(=O)c2ccccc21 (stereo not drawn),52.7,–
CCOC(=O)C1=C(C)N(NC(=O)Nc2ccccc2)C2(N)N(NC(=O)Nc3ccccc3)C(C)=C(C(=O)OCC)C12C(=O)OCC (stereo not drawn),> 100,–
O=C(O)CSc1n[nH]c(-c2ccccc2O)n1,> 100,–
CCOc1ccc(NC2=CC(=O)C(=O)c3ccccc32)cc1,3.71,–
Cc1nc(-c2nc(C)c(C(=O)NNC(=O)C[n+]3ccccc3)s2)sc1C(=O)NNC(=O)C[n+]1ccccc1,> 100,–
O=C1c2ccccc2C(=O)c2c(/C=C\N3CCCCC3)ccnc21,4.2,–
O=c1[nH]c(-c2ccccc2)nc2cc(Cl)ccc12,> 100,–
Cc1ccc(S(=O)(=O)N2CCC2c2ccccc2)cc1 (stereo not drawn),> 100,–
CCCOc1nc(N)c2cnn(C3CCCCO3)c2n1 (stereo not drawn),> 100,–
COc1ccc(/C=C/COC(C)=O)cc1OC,> 100,–
[O-][Cl+3]([O-])([O-])[O-].[O]=[Ru]=[O].c1ccc(-c2ccccn2)nc1.c1ccc(-c2ccccn2)nc1,61.2,21.9
COc1cc2c(cc1OC)C(Cl)C(c1ccc(F)cc1)=C2Cl (stereo not drawn),28.5,–
CN(C)CC1CCC/C1=N/OC(=O)c1ccccc1 (stereo not drawn),> 100,–
CCOC(=O)C1Sc2ccccc2N=C1C (stereo not drawn),> 100,–
CCC(C)SC1SCC2C(=O)N(C)C3(CC3C)C(=O)OCC(NC(=O)c3nc4ccccc4cc3O)C(=O)NC(C)C(=O)N(C)C1C(=O)N(C)C1(CC1C)C(=O)OCC(NC(=O)c1nc3ccccc3cc1O)C(=O)NC(C)C(=O)N2C (stereo not drawn),0.000279,–
Cc1[cH-]c(=O)n(-c2ccccc2)n1.[Au+].[Au].c1ccc([PH+](c2ccccc2)c2ccccc2)cc1.c1ccc([PH+](c2ccccc2)c2ccccc2)cc1,11.6,2.81
CC1(C)CC(c2c[nH]c3ccccc23)=CC2=Nc3ccccc3C21O (stereo not drawn),> 100,–
CN1C(=O)C(=O)N2c3ccc(Cl)cc3C3(c4ccccc4)N=CC12O3 (stereo not drawn),11.6,–
N#CCCC[Si]12OCCN(CCO1)CCO2,> 100,–
O=C(/C=C/c1c(O)ccc2ccccc12)c1ccc([N+](=O)[O-])cc1,41.1,–

# System: DLD-1 colon
# Experiment: inhibition of tumour cell growth, NCI panel, 48 h
Compound,TGI [µM],GI50 [µM]
C[C@@]1(O)CC[C@]2(C)C3CCCC3[C@H]12 (stereo partly drawn),> 100,–
O=C(Nc1nc(=S)[nH][nH]1)C(=O)C(C(=O)c1ccc2ccccc2c1)C1OC(=O)c2ccccc21 (stereo not drawn),44.6,–
CCOC(=O)C1=C(C)N(NC(=O)Nc2ccccc2)C2(N)N(NC(=O)Nc3ccccc3)C(C)=C(C(=O)OCC)C12C(=O)OCC (stereo not drawn),> 100,–
O=C(O)CSc1n[nH]c(-c2ccccc2O)n1,> 100,–
CCOc1ccc(NC2=CC(=O)C(=O)c3ccccc32)cc1,21.7,–
Cc1nc(-c2nc(C)c(C(=O)NNC(=O)C[n+]3ccccc3)s2)sc1C(=O)NNC(=O)C[n+]1ccccc1,> 100,–
CN(C)C=Nc1nc(=O)n(C2CCC(CO)O2)cc1F (stereo not drawn),> 100,–
O=C1c2ccccc2C(=O)c2c(/C=C\N3CCCCC3)ccnc21,15.8,–
O=c1[nH]c(-c2ccccc2)nc2cc(Cl)ccc12,> 100,–
CCCOc1nc(N)c2cnn(C3CCCCO3)c2n1 (stereo not drawn),> 100,–
C/C(CN1C(=O)c2ccccc2C1=O)=N\NS(=O)(=O)c1ccc(Cl)cc1,> 100,–
[O-][Cl+3]([O-])([O-])[O-].[O]=[Ru]=[O].c1ccc(-c2ccccn2)nc1.c1ccc(-c2ccccn2)nc1,> 100,> 100
COc1cc2c(cc1OC)C(Cl)C(c1ccc(F)cc1)=C2Cl (stereo not drawn),32.9,–
O=C1C(C(Nc2ccccc2)c2ccccc2)=C([O-])c2ccccc21.O=C1C(C(Nc2ccccc2)c2ccccc2)=C([O-])c2ccccc21.[Cu+2] (stereo not drawn),> 100,34.6
CN(C)CC1CCC/C1=N/OC(=O)c1ccccc1 (stereo not drawn),> 100,–
CCOC(=O)C1Sc2ccccc2N=C1C (stereo not drawn),> 100,–
O=C(NC1C=CCC2C(=O)N(c3ccccc3)C(=O)C12)OCc1ccccc1 (stereo not drawn),> 100,–
CCC(C)SC1SCC2C(=O)N(C)C3(CC3C)C(=O)OCC(NC(=O)c3nc4ccccc4cc3O)C(=O)NC(C)C(=O)N(C)C1C(=O)N(C)C1(CC1C)C(=O)OCC(NC(=O)c1nc3ccccc3cc1O)C(=O)NC(C)C(=O)N2C (stereo not drawn),0.0732,–
Cc1[cH-]c(=O)n(-c2ccccc2)n1.[Au+].[Au].c1ccc([PH+](c2ccccc2)c2ccccc2)cc1.c1ccc([PH+](c2ccccc2)c2ccccc2)cc1,41.5,15.7
CC1(C)CC(c2c[nH]c3ccccc23)=CC2=Nc3ccccc3C21O (stereo not drawn),> 100,–
CN1C(=O)C(=O)N2c3ccc(Cl)cc3C3(c4ccccc4)N=CC12O3 (stereo not drawn),10.3,–
N#CCCC[Si]12OCCN(CCO1)CCO2,> 100,–
O=C(/C=C/c1c(O)ccc2ccccc12)c1ccc([N+](=O)[O-])cc1,40.8,–

# System: M19-MEL melanoma
# Experiment: inhibition of tumour cell growth, NCI panel, 48 h
Compound,TGI [µM],GI50 [µM]
C[C@@]1(O)CC[C@]2(C)C3CCCC3[C@H]12 (stereo partly drawn),> 100,–
O=C(Nc1nc(=S)[nH][nH]1)C(=O)C(C(=O)c1ccc2ccccc2c1)C1OC(=O)c2ccccc21 (stereo not drawn),30.6,–
CCOC(=O)C1=C(C)N(NC(=O)Nc2ccccc2)C2(N)N(NC(=O)Nc3ccccc3)C(C)=C(C(=O)OCC)C12C(=O)OCC (stereo not drawn),> 100,–
O=C(O)CSc1n[nH]c(-c2ccccc2O)n1,> 100,–
CCOc1ccc(NC2=CC(=O)C(=O)c3ccccc32)cc1,2.03,–
Cc1nc(-c2nc(C)c(C(=O)NNC(=O)C[n+]3ccccc3)s2)sc1C(=O)NNC(=O)C[n+]1ccccc1,> 100,–
O=C1c2ccccc2C(=O)c2c(/C=C\N3CCCCC3)ccnc21,0.563,–
O=c1[nH]c(-c2ccccc2)nc2cc(Cl)ccc12,> 100,–
Cc1ccc(S(=O)(=O)N2CCC2c2ccccc2)cc1 (stereo not drawn),> 100,–
CCCOc1nc(N)c2cnn(C3CCCCO3)c2n1 (stereo not drawn),> 100,–
C/C(CN1C(=O)c2ccccc2C1=O)=N\NS(=O)(=O)c1ccc(Cl)cc1,> 100,–
COc1ccc(/C=C/COC(C)=O)cc1OC,> 100,–
[O-][Cl+3]([O-])([O-])[O-].[O]=[Ru]=[O].c1ccc(-c2ccccn2)nc1.c1ccc(-c2ccccn2)nc1,> 100,> 100
COc1cc2c(cc1OC)C(Cl)C(c1ccc(F)cc1)=C2Cl (stereo not drawn),38.7,–
O=C1C(C(Nc2ccccc2)c2ccccc2)=C([O-])c2ccccc21.O=C1C(C(Nc2ccccc2)c2ccccc2)=C([O-])c2ccccc21.[Cu+2] (stereo not drawn),> 100,> 100
CN(C)CC1CCC/C1=N/OC(=O)c1ccccc1 (stereo not drawn),> 100,–
CCOC(=O)C1Sc2ccccc2N=C1C (stereo not drawn),> 100,–
O=C(NC1C=CCC2C(=O)N(c3ccccc3)C(=O)C12)OCc1ccccc1 (stereo not drawn),> 100,–
CCC(C)SC1SCC2C(=O)N(C)C3(CC3C)C(=O)OCC(NC(=O)c3nc4ccccc4cc3O)C(=O)NC(C)C(=O)N(C)C1C(=O)N(C)C1(CC1C)C(=O)OCC(NC(=O)c1nc3ccccc3cc1O)C(=O)NC(C)C(=O)N2C (stereo not drawn),0.000236,–
Cc1[cH-]c(=O)n(-c2ccccc2)n1.[Au+].[Au].c1ccc([PH+](c2ccccc2)c2ccccc2)cc1.c1ccc([PH+](c2ccccc2)c2ccccc2)cc1,> 100,28.1
CC1(C)CC(c2c[nH]c3ccccc23)=CC2=Nc3ccccc3C21O (stereo not drawn),> 100,–
CN1C(=O)C(=O)N2c3ccc(Cl)cc3C3(c4ccccc4)N=CC12O3 (stereo not drawn),13.7,–
N#CCCC[Si]12OCCN(CCO1)CCO2,> 100,–
O=C(/C=C/c1c(O)ccc2ccccc12)c1ccc([N+](=O)[O-])cc1,35.4,–

# System: MDA-N
# Experiment: inhibition of tumour cell growth, NCI panel, 48 h
row,Compound,TGI [µM]
1,O=C1CSC(=S)N1/N=C/c1ccc(Cl)c([N+](=O)[O-])c1,52.6
2,CCOc1ccc(NC2=CC(=O)C(=O)c3ccccc32)cc1,3.94
3,O=C1c2ccccc2C(=O)c2c(/C=C\N3CCCCC3)ccnc21,0.352
4,C[C@@H]1CC[C@H]2C(C)(C)[C@H]3C[C@@]12CC[C@@]3(C)O,> 100
5,C=C(C)C(=O)O[C@@H]1C[C@@]2(C)O[C@@H]2C[C@H](O)/C(C)=C/[C@H]2OC(=O)C(=C)[C@@H]21,> 100
6,CC(=O)OC1(C)N=NC2(CCCCC2)O1 (stereo not drawn),> 100
7,Nc1nc2[nH]cc(CCc3ccc(C(=O)N[C@@H](CCC(=O)O)C(=O)O)cc3)c2c(=O)[nH]1,> 100
8,COC1=CC(=O)C(C2(OC(C)C)OC(=O)C(Cl)=C2Cl)=CC1=O (stereo not drawn),> 100
9,CCC(C)SC1SCC2C(=O)N(C)C3(CC3C)C(=O)OCC(NC(=O)c3nc4ccccc4cc3O)C(=O)NC(C)C(=O)N(C)C1C(=O)N(C)C1(CC1C)C(=O)OCC(NC(=O)c1nc3ccccc3cc1O)C(=O)NC(C)C(=O)N2C (stereo not drawn),0.000162

# — PubChem BioAssay (NCI)
